From patent US6355640B1, “Pyrazolopyridine adenosine antagonists” (Fujisawa Pharmaceutical Co., Ltd., priority 1993, dated 2002)
Marks after values point to notes of the source that are not given here.

How the values were obtained:
[1] = system: cisplatin induced renal failure; test: Test 2. Effect on Cisplatin-induced Renal Failure; format: in vivo; conditions: Male JCL:SD rats, cisplatin 4.5 mg/kg i.p. 60 minutes after first dose; test compound 0.1 mg/kg i.v. twice a day for 8 days; measured on the 8th day; mean; P < 0.05 vs control group
Description: Male JCL:SD strain rats aged 9 weeks weighing 280-300 g received cisplatin (4.5 mg/kg) intraperitoneally. Normal rats were injected with an equal amount of saline instead of cisplatin. The effect of chronic intravenous administration of the test compound (0.1 mg/kg, twice a day) on cisplatin induced renal failure was investigated in rats. […] The plasma creatinine concentrations were measured in all rats on the 8th day.

[2] = system: cisplatin induced renal failure; test: Test 1. Effect on Cisplatin-induced Renal Failure; format: in vivo; conditions: Male JCL:SD rats, cisplatin 4.5 mg/kg i.p. at the same time as first dose; test compound 0.1 mg/kg i.v. twice a day for 3 days; measured on the 8th day; mean; p < 0.01 vs control group
Description: Male JCL:SD strain rats aged 9 weeks weighing 280-300 g received cisplatin (4.5 mg/kg) intraperitoneally. Normal rats were injected with an equal amount of saline instead of cisplatin. The effect of repeated intravenous administration of the test compound (0.1 mg/kg, twice a day) on cisplatin induced renal failure was investigated in rats. Cisplatin was given at the same time of the first dose of the test compound (for the test group) or vehicle (saline) (for the control group), and the test compound or vehicle was given for 3 days. The plasma creatinine concentrations were measured in all rats on the 8th day.

| melting point | Compound | also measured |
| --- | --- | --- |
|  | O=C(O)CC1=C(n2nc(-c3c(-c4ccccc4)nn4ccccc34)ccc2=O)CCCC1 [Example 58, 3-[2-(2-carboxymethyl-1-cyclohexenyl)-3-oxo-2,3-dihydropyridazin-6-yl]-2-phenylpyrazolo[1,5-a]pyridine] | serum creatinine [1]: 1.10* mg/dl |
|  | O=C(O)CC1=C(n2nc(-c3c(-c4ccccc4)nn4ccccc34)ccc2=O)CCCCC1 [Example 19, 3-[2-(2-carboxymethyl-1-cycloheptenyl)-3-oxo-2,3-dihydropyridazin-6-yl]-2-phenylpyrazolo[1,5-a]-pyridine] | serum creatinine [2]: 1.32** mg/dl |
| 133 to 134 °C (dec.) | O=C1NCCC1n1nc(-c2c(-c3ccccc3)nn3ccccc23)ccc1=O (centres unmarked) [Example 23, 3-[2-(2-Oxopyrrolidin-3-yl)-3-oxo-2,3-dihydropyridazin-6-yl]-2-phenylpyrazolo[1,5-a]pyridine] |  |
| 218 to 222 °C | O=C(O)[C@H]1CCC[C@H](n2nc(-c3c(-c4ccccc4)nn4ccccc34)ccc2=O)C1 (relative stereo) [Example 41, trans-3-(2-(3-Carboxycyclohexyl)-3-oxo-2,3-dihydropyridazin-6-yl]-2-phenylpyrazolo[1,5-a]pyridine] |  |
| 170 °C | O=c1ccc(-c2c(-c3ccccc3)nn3ccccc23)nn1-c1ccccc1 [Example 99, 3-(2-phenyl-3-oxo-2,3-dihydropyridazin-6-yl)-2-phenylpyrazolo[1,5-a]pyridine] |  |
| 92.5 to 93 °C | O=C(O)CCCNC(=O)CC1=C(n2nc(-c3c(-c4ccccc4)nn4ccccc34)ccc2=O)CCCC1 [Example 46, 3-[2-(2-(N-(3-Carboxypropyl)carbamoyl)methyl-1-cyclohexenyl)-3-oxo-2,3-dihydropyridazin-6-yl]-2-phenylpyrazolo[1,5-a]pyridine] |  |
| 135 to 138 °C | CN(CC(=O)O)C(=O)CC1=C(n2nc(-c3c(-c4ccccc4)nn4ccccc34)ccc2=O)CCCC1 [Example 43, 3-[2-{2-(N-carboxymethyl-N-methylcarbamoyl)methyl-1-cyclohexenyl}-3-oxo-2,3-dihydropyridazin-6-yl]-2-phenylpyrazolo[1,5-a]pyridine] |  |
| 214 to 216 °C | O=C1CCCCC1Oc1ccc(-c2c(-c3ccccc3)nn3ccccc23)nn1 (single isomer, unassigned) [Example 2 (less polar compound), 3-[3-(2-Oxocyclohexyl)oxypyridazin-6-yl]-2-phenylpyrazolo[1,5-a]pyridine] |  |
